Measurements as given in the NIST ThermoML archive (doi:10.1021/je900690d).
Numbers after ± are expanded uncertainties.

Test: mean ionic activity coefficient (dimensionless); mn = molality of the nth substance listed, in mol/kg
Settings: 101 kPa, Liquid, Electrochemical Cell

[Cl-].[K+] [potassium chloride] + O
Settings | mean ionic activity coefficient
278.15 K, m1 = 0.0025 | 0.9474 ± 0.00095
278.15 K, m1 = 0.0054 | 0.9254 ± 0.00093
278.15 K, m1 = 0.0083 | 0.91 ± 0.00091
278.15 K, m1 = 0.014 | 0.8876 ± 0.00089
278.15 K, m1 = 0.0224 | 0.8637 ± 0.00086
278.15 K, m1 = 0.034 | 0.8398 ± 0.00084
278.15 K, m1 = 0.051 | 0.8137 ± 0.00081
278.15 K, m1 = 0.0752 | 0.7863 ± 0.00079
278.15 K, m1 = 0.1147 | 0.754 ± 0.00075
278.15 K, m1 = 0.1839 | 0.7149 ± 0.00071
278.15 K, m1 = 0.277 | 0.6787 ± 0.00068
278.15 K, m1 = 0.3883 | 0.6474 ± 0.00065
278.15 K, m1 = 0.5559 | 0.6129 ± 0.00061
278.15 K, m1 = 0.7102 | 0.5888 ± 0.00059
278.15 K, m1 = 0.8997 | 0.5653 ± 0.00057
278.15 K, m1 = 1.063 | 0.5488 ± 0.00055
278.15 K, m1 = 1.246 | 0.5333 ± 0.00053
278.15 K, m1 = 1.405 | 0.522 ± 0.00052
278.15 K, m1 = 1.547 | 0.5131 ± 0.00051
288.15 K, m1 = 0.0026 | 0.946 ± 0.00095
288.15 K, m1 = 0.005 | 0.9269 ± 0.00093
288.15 K, m1 = 0.0077 | 0.9118 ± 0.00091
288.15 K, m1 = 0.0129 | 0.8901 ± 0.00089
288.15 K, m1 = 0.0183 | 0.8733 ± 0.00087
288.15 K, m1 = 0.026 | 0.8543 ± 0.00085
288.15 K, m1 = 0.0362 | 0.8346 ± 0.00083
288.15 K, m1 = 0.0512 | 0.8123 ± 0.00081
288.15 K, m1 = 0.0744 | 0.7864 ± 0.00079
288.15 K, m1 = 0.1053 | 0.7607 ± 0.00076
288.15 K, m1 = 0.1534 | 0.7316 ± 0.00073
288.15 K, m1 = 0.2433 | 0.6945 ± 0.00069
288.15 K, m1 = 0.3142 | 0.6736 ± 0.00067
288.15 K, m1 = 0.4008 | 0.6536 ± 0.00065
288.15 K, m1 = 0.506 | 0.6346 ± 0.00063
288.15 K, m1 = 0.6305 | 0.6167 ± 0.00062
288.15 K, m1 = 0.7893 | 0.5987 ± 0.0006
288.15 K, m1 = 0.9633 | 0.5828 ± 0.00058
288.15 K, m1 = 1.142 | 0.5695 ± 0.00057
288.15 K, m1 = 1.301 | 0.5594 ± 0.00056
288.15 K, m1 = 1.44 | 0.5515 ± 0.00055
288.15 K, m1 = 1.567 | 0.545 ± 0.00055
298.15 K, m1 = 0.0025 | 0.9465 ± 0.00095
298.15 K, m1 = 0.0049 | 0.9271 ± 0.00093
298.15 K, m1 = 0.0077 | 0.9114 ± 0.00091
298.15 K, m1 = 0.0132 | 0.8888 ± 0.00089
298.15 K, m1 = 0.019 | 0.8713 ± 0.00087
298.15 K, m1 = 0.0272 | 0.8519 ± 0.00085
298.15 K, m1 = 0.0384 | 0.8318 ± 0.00083
298.15 K, m1 = 0.0529 | 0.8116 ± 0.00081
298.15 K, m1 = 0.0731 | 0.7899 ± 0.00079
298.15 K, m1 = 0.1027 | 0.766 ± 0.00077
298.15 K, m1 = 0.1458 | 0.7404 ± 0.00074
298.15 K, m1 = 0.2002 | 0.7169 ± 0.00072
298.15 K, m1 = 0.2643 | 0.6961 ± 0.0007
298.15 K, m1 = 0.3687 | 0.6714 ± 0.00067
298.15 K, m1 = 0.5383 | 0.6442 ± 0.00064
298.15 K, m1 = 0.7187 | 0.6245 ± 0.00062
298.15 K, m1 = 0.8905 | 0.6109 ± 0.00061
298.15 K, m1 = 1.09 | 0.599 ± 0.0006
298.15 K, m1 = 1.24 | 0.5921 ± 0.00059
298.15 K, m1 = 1.398 | 0.5862 ± 0.00059
308.15 K, m1 = 0.0025 | 0.9451 ± 0.00095
308.15 K, m1 = 0.005 | 0.9256 ± 0.00093
308.15 K, m1 = 0.0073 | 0.9123 ± 0.00091
308.15 K, m1 = 0.0099 | 0.9007 ± 0.0009
308.15 K, m1 = 0.0151 | 0.8818 ± 0.00088
308.15 K, m1 = 0.0226 | 0.8616 ± 0.00086
308.15 K, m1 = 0.0332 | 0.8402 ± 0.00084
308.15 K, m1 = 0.0491 | 0.8165 ± 0.00082
308.15 K, m1 = 0.075 | 0.7889 ± 0.00079
308.15 K, m1 = 0.1006 | 0.7687 ± 0.00077
308.15 K, m1 = 0.1313 | 0.7499 ± 0.00075
308.15 K, m1 = 0.1962 | 0.7209 ± 0.00072
308.15 K, m1 = 0.2752 | 0.6962 ± 0.0007
308.15 K, m1 = 0.3636 | 0.6759 ± 0.00068
308.15 K, m1 = 0.4739 | 0.657 ± 0.00066
308.15 K, m1 = 0.6044 | 0.6402 ± 0.00064
308.15 K, m1 = 0.7598 | 0.6252 ± 0.00063
308.15 K, m1 = 0.9162 | 0.6138 ± 0.00061
308.15 K, m1 = 1.087 | 0.6044 ± 0.0006
308.15 K, m1 = 1.251 | 0.5978 ± 0.0006
308.15 K, m1 = 1.397 | 0.5934 ± 0.00059
308.15 K, m1 = 1.526 | 0.5906 ± 0.00059
